The text below walks through data of paper PMC5845004, “Novel (p)ppGpp Binding and Metabolizing Proteins of Escherichia coli” (mBio, 2018).

Where “and” joins values, the source holds several entries; their conditions need not be identical. Equal entries are not always repeated. Entries after “also recorded” stand apart in the source; their conditions may differ. Where two headings read alike, the source gives them in different places.

For orientation: IC50 means the concentration needed to halve the response being measured. A word on the Ki: it is the equilibrium dissociation constant of an inhibitor or competing ligand from its target.

The target of test [1] is T1, NudG (Escherichia coli, UniProt P77788).
T1 construct: expressed in transfected cells; host or cells: E. coli ASKA collection strain, IPTG-induced, whole-cell lysate
In words: In vitro cleavage assay (TLC), NudG. The conditions noted are these: purified NudG, buffer B with 10 mM MgCl2, TLC. It counts as biochemical, E. coli. How it is done:
(§1) The purified His6-MutT and His6-NudG proteins were tested for their relative levels of cleavage of ppGpp compared to those seen with their native substrates. For this, a 1 μM concentration of each protein and a 10 nM concentration of [α-^32P]ppGpp were used together with 100 μM concentrations of cold competitors [ppGpp, GTP, ATP, 8-oxo-(d)GTP, 2-hydroxyl-(d)ATP] or 50 mM EDTA in buffer B. The samples were incubated at 30°C for 10 min and for 1 h before the reactions were stopped by adding 50 mM EDTA. The cleavage products were resolved by TLC as described above. The purified His6-NadR and His6-TrmE proteins were tested for their cleavage of both GTP and ppGpp. For cleavage of GTP, 10 μM concentrations of His6-MBP, His6-TrmE, and 20 μM His6-NadR proteins were used with 2 nM [α-^32P]GTP and 100 μM cold GTP in buffer B. For cleavage of ppGpp, 10 μM concentrations of His6-TrmE, His6-MBP, and His6-NadR proteins were used with 10 nM [α-^32P]ppGpp in buffer B. Of note, for His6-TrmE, another reaction was also performed in buffer B supplemented with 100 mM KCl. The reactions were performed at RT for 10 min and were stopped by adding 17% formic acid. The cleavage products were resolved by TLC as described above.
(§2) A 20 μM concentration of each of purified proteins MutT, NudG, NadR, TrmE, and MBP (as a negative control) was incubated with 100 μM ppGpp in buffer B (containing 40 mM Tris [pH 7.5], 100 mM NaCl, and 10 mM MgCl2) for 20 min at room temperature. Samples were snap-frozen on dry ice and analyzed with UPLC-MS afterward. All samples and buffers were stored at −80°C, thawed on ice, and kept at 4°C during analysis. For the analysis, a UPLC-quadrupole time of flight (UPLC-qTOF) method (Waters) was used. Analysis conditions were as follows: column, zic-HILIC (Merck Millipore) (150 by 2.1 mm, […], gradient elution, flow rate set to 0.3 ml/min); mobile phase A, 10 mM ammonium acetate (pH 5); mobile phase B, 90% acetonitrile with 10 mM ammonium acetate (pH 5). The gradient was set up as follows: min 0 to 2, 80% B; min 2 to 16, 80% B to 50% B; hold until min 20; injection volume, 4 µl. The detection conditions were as follows: photodiode array detector (PDA), […] (evaluated at 260 nm); MS, ionization; electrospray ionization (ESI+), scan, 200 to 800 m/z with lock mass correction. Analytes were identified by their accurate mass and retention time data for a known standard dissolved in used buffer (for the chemicals of the same nominal masses). These standards were either synthesized and their structures confirmed by nuclear magnetic resonance (NMR) (for ppGp, pGpp, and pGp) or purchased (ppGpp was purchased from Jena Biocsience and GTP from Sigma-Aldrich).

Test [2] has as its target YgdH (Escherichia coli, UniProt P0ADR8). Kind of test: DRaCALA binding and Kd determination, purified YgdH. On the set-up: species or system E. coli. As to conditions: DRaCALA.
Description: (§3) For Kd measurements by DRaCALA, 2-fold serial dilutions from the highest possible concentrations of each purified protein were prepared in binding buffer B, and approximately 2 nM concentrations of α-^32P-labeled ppGpp, pppGpp, GTP, and GDP were added. The mixtures were incubated for 5 min at RT before spotting of 2 µl of the reaction mixtures onto nitrocellulose membranes. […] For competition assays, purified proteins at the specified concentrations were incubated with 2 nM [α-^32P]ppGpp or [α-^32P]pppGpp in the presence of 100 μM competitor nucleotides in binding buffer B. The reaction mixtures were incubated for 5 min at RT, 2 µl was spotted onto nitrocellulose membranes, and the values corresponding to the bound fractions were determined. EDTA was added at excess concentrations as specified for each case.
Test [3] deals with T2, TrmE (Escherichia coli, UniProt P25522). Kind of test: DRaCALA Kd determination, purified TrmE. The conditions noted are these: in the presence of magnesium, read-out: apparent Kd, TrmE. It counts as binding, E. coli.
Description: as §3
Test [4] deals with MutT (Escherichia coli, UniProt P08337). In words: In vitro cleavage assay (TLC), MutT. It counts as biochemical, E. coli. As to conditions: for cleavage by MutT: purified MutT, buffer B with 10 mM MgCl2, TLC. How it is done:
as §1, §2

Test [5] concerns GppA. The arrangement: method as in Table S1 (17). As to conditions: ref Table S1 (17); cited from earlier work.
In test [6] the test system is Gmk. The arrangement: method as in Table S1 (3). The conditions noted are these: ref Table S1 (3); read-out: IC50, B. subtilis Gmk; cited from earlier work.
Test [7] has as its target LepA (Escherichia coli, UniProt P60785). Kind of test: DRaCALA binding curves, purified LepA. As to conditions: Kd could not be determined. On the set-up: species or system E. coli.
Description: For Kd measurements by DRaCALA, 2-fold serial dilutions from the highest possible concentrations of each purified protein were prepared in binding buffer B, and approximately 2 nM concentrations of α-^32P-labeled ppGpp, pppGpp, GTP, and GDP were added. The mixtures were incubated for 5 min at RT before spotting of 2 µl of the reaction mixtures onto nitrocellulose membranes. The fractions of bound ligand and the apparent Kd values were calculated as previously described ([37]). For competition assays, purified proteins at the specified concentrations were incubated with 2 nM [α-^32P]ppGpp or [α-^32P]pppGpp in the presence of 100 μM competitor nucleotides in binding buffer B. The reaction mixtures were incubated for 5 min at RT, 2 µl was spotted onto nitrocellulose membranes, and the values corresponding to the bound fractions were determined. EDTA was added at excess concentrations as specified for each case.
In test [8] the target is SaDer (Staphylococcus aureus, UniProt A6QH24). Kind of test: DRaCALA Kd determination, SaDer. It counts as binding, S. aureus.
Description: For Kd measurements by DRaCALA, 2-fold serial dilutions from the highest possible concentrations of each purified protein were prepared in binding buffer B, and approximately 2 nM concentrations of α-^32P-labeled ppGpp, pppGpp, GTP, and GDP were added. The mixtures were incubated for 5 min at RT before spotting of 2 µl of the reaction mixtures onto nitrocellulose membranes. The fractions of bound ligand and the apparent Kd values were calculated as previously described ([37]).
For test [9], the target named is Hpt (Escherichia coli, UniProt P0A9M2). The arrangement: method as in ref 29-32 (Table S1 refs 1, 2). As to conditions: ref 29-32 (Table S1 refs 1, 2); cited from earlier work.
Test [10] deals with T2, TrmE. In words: In vitro cleavage assay (TLC), TrmE. It counts as biochemical, E. coli. As to conditions: 10 µM TrmE, buffer B, with 100 mM potassium where stated, 10 min. How it is done:
as §1
A 20 μM concentration of each of purified proteins MutT, NudG, NadR, TrmE, and MBP (as a negative control) was incubated with 100 μM ppGpp in buffer B (containing 40 mM Tris [pH 7.5], 100 mM NaCl, and 10 mM MgCl2) for 20 min at room temperature. Samples were snap-frozen on dry ice and analyzed with UPLC-MS afterward. All samples and buffers were stored at −80°C, thawed on ice, and kept at 4°C during analysis. For the analysis, a UPLC-quadrupole time of flight (UPLC-qTOF) method (Waters) was used. […] The detection conditions were as follows: photodiode array detector (PDA), […] (evaluated at 260 nm); MS, ionization; electrospray ionization (ESI+), scan, 200 to 800 m/z with lock mass correction. […]

Test [11] deals with HprT. On the set-up: method as in ref 46 (Table S1 ref 3). The conditions noted are these: ref 46 (Table S1 ref 3); read-out: IC50, B. subtilis HprT; cited from earlier work.
For test [12], the target named is EF-G. The arrangement: method as in Table S1 (9). As to conditions: ref Table S1 (9), cited from earlier work.
For test [13], the target named is LdcC. The arrangement: method as in Table S1 (19). As to conditions: ref Table S1 (19); cited from earlier work.
In test [14] the test system is RelA. The arrangement: method as in ref 36 (Table S1 ref 16). As to conditions: ref 36 (Table S1 ref 16); cited from earlier work.
The target in test [15] is EF-Tu. The arrangement: method as in Table S1 (9). The conditions noted are these: ref Table S1 (9); cited from earlier work.
The target in test [16] is Gpt (Escherichia coli, UniProt P0A9M5). On the set-up: method as in ref 29-32 (Table S1 refs 1, 2). The conditions noted are these: ref 29-32 (Table S1 refs 1, 2); cited from earlier work.
In test [17] the target is SpeC. On the set-up: method as in Table S1 (19). As to conditions: ref Table S1 (19); cited from earlier work.
Test [18] deals with ObgE (Escherichia coli, UniProt P42641). On the set-up: method as in Table S1 (7). As to conditions: ref Table S1 (7); cited from earlier work.
The mark [19] stands for this setting: in the presence of EDTA (without Mg2+), read-out: Kd, YgdH + EDTA (converted).
Where [20] appears, read: with 1.5 mM Mg2+, read-out: apparent Kd, YgdH + 1.5 mM Mg2+.

T1 sequence (P77788 whole entry): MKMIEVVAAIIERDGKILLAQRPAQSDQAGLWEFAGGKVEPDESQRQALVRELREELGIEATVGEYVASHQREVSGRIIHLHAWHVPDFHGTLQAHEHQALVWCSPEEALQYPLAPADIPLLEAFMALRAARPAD
Sequence of YgdH (P0ADR8 whole entry): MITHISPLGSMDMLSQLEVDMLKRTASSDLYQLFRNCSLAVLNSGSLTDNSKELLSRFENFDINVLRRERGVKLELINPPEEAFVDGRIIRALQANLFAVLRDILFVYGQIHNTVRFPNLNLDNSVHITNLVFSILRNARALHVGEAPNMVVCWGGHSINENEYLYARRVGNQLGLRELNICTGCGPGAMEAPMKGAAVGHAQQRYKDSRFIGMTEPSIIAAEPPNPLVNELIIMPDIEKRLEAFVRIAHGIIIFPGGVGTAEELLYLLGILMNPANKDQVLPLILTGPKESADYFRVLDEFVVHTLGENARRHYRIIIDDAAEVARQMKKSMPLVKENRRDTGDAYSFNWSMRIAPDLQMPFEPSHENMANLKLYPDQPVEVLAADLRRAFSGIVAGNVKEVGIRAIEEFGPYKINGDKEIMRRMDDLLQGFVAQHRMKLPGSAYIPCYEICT
Sequence of MutT (P08337 whole entry): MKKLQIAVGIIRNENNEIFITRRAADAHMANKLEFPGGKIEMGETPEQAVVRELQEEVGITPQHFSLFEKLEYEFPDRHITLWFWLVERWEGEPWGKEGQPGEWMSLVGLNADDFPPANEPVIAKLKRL
T2 sequence (P25522 whole entry): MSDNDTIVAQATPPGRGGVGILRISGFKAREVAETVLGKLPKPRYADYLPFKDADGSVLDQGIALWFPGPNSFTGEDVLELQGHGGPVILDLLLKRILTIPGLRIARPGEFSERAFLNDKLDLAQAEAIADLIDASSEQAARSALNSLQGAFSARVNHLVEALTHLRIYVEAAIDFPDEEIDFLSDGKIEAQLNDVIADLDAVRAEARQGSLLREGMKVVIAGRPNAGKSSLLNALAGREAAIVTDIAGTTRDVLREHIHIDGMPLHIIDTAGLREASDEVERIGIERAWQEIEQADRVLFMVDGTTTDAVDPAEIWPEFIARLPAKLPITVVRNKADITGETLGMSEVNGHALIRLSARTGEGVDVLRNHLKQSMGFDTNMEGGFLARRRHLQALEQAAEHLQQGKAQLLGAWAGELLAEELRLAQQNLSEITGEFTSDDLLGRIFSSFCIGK
Sequence of Gpt (P0A9M5 whole entry): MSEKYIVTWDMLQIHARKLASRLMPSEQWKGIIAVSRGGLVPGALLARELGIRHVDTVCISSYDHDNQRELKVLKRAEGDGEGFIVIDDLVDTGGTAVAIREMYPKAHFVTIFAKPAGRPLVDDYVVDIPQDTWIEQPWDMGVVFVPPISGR
Sequence of Hpt (P0A9M2 whole entry): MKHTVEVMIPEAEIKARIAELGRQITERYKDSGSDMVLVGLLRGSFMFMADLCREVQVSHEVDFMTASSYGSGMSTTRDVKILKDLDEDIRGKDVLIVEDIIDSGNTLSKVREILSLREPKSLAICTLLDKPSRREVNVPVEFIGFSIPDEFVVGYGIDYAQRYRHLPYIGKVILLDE
Sequence of LepA (P60785 whole entry): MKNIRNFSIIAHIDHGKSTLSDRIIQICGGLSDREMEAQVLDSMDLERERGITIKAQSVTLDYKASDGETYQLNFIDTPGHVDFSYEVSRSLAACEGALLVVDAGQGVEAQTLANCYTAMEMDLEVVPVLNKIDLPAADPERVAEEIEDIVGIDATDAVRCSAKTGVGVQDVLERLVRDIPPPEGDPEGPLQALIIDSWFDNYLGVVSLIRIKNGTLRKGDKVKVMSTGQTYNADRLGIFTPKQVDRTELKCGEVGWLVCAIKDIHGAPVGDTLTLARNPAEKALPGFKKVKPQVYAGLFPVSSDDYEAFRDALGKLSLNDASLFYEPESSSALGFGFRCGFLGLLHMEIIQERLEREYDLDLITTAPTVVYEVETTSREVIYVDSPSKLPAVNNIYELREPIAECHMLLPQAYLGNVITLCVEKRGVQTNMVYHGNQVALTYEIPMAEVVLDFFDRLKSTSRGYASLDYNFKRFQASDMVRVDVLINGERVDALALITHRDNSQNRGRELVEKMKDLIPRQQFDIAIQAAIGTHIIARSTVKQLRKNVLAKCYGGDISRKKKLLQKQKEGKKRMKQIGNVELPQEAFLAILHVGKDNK
Sequence of ObgE (P42641 whole entry): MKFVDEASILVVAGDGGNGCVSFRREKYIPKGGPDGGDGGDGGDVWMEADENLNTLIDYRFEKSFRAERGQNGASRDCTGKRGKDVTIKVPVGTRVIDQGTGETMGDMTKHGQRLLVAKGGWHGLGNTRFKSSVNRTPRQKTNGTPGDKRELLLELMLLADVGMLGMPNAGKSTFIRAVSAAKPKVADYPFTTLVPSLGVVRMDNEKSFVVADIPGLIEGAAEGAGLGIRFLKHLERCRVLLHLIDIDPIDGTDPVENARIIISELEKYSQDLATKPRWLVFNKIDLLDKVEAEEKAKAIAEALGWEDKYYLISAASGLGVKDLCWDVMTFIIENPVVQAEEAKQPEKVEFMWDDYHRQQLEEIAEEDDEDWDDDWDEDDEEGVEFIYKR
Sequence of SaDer (A6QH24 whole entry): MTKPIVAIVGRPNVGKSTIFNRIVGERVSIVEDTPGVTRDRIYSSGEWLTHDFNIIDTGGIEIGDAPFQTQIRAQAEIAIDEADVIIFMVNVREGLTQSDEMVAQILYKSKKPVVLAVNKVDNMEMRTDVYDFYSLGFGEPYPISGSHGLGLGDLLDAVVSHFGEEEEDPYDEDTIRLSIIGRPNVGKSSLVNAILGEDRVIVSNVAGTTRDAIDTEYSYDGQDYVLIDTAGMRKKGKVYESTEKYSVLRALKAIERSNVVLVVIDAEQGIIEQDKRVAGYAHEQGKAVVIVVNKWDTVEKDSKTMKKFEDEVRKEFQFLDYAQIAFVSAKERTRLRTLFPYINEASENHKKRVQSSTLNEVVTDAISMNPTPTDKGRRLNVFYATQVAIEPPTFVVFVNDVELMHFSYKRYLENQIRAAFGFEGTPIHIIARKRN

As to `Nc1nc2c(ncn2[C@@H]2O[C@H](COP(=O)(O)OP(=O)(O)OP(=O)(O)O)[C@@H](OP(=O)(O)OP(=O)(O)O)[C@H]2O)c(=O)[nH]1` [pppGpp, guanosine pentaphosphate], in test [1], the “cleavage by NudG” value was “degraded into smaller products”. Moreover, the Kd in test [2] (setting [19]) is 1.6 µM and 1.59 µM; in test [2] (setting [20]), 37.2 ± 6.5 µM; in test [3] it was 2.2 ± 0.9 µM. The “cleavage by MutT” value in test [4] is on record as “degraded into smaller products”. Besides, in test [5], the “conversion by GppA” value is recorded as “Convert pppGpp to ppGpp; (17)”.
With `Nc1nc2c(ncn2[C@@H]2O[C@H](COP(=O)(O)OP(=O)(O)O)[C@@H](OP(=O)(O)OP(=O)(O)O)[C@H]2O)c(=O)[nH]1` [ppGpp, guanosine tetraphosphate], the “cleavage by NudG” value in [1] was “degraded into smaller products; also recorded: relatively weak ppGpp cleavage activity”. For the same molecule, the Kd was 4 ± 0.5 µM in test [2] (setting [19]); 24.4 ± 4.7 µM in test [2] (setting [20]); 1.7 ± 0.5 µM in test [3]; 3.8 ± 0.5 µM in test [8]; 0.1 to 0.5 µM in test [13]; 0.598 ± 0.068 µM in [17]. Also, the IC50 is 20 µM in test [6]; ~85 µM and 85 µM in [9]; 11 µM in test [11]; ~85 µM and 85 µM in [16]. In test [7], the “relative binding to LepA (binding curves)” value is recorded as “tighter binding of ppGpp than pppGpp; also recorded: ND; stronger binding to ppGpp than pppGpp”. In addition, the “cleavage by TrmE” value in [10] is on record as “converted most of ppGpp”. Further, in [4] (1 µM MutT, 10 nM hot ppGpp, 100 µM competitor, 30°C, up to 1 h), the “inhibition of [α-32P]ppGpp cleavage by MutT” value is given as “very limited inhibitory effects”. Besides, the “cleavage by MutT” value in test [4] is “degraded into smaller products; also recorded: cleaved most ppGpp”. In addition, the Ki was 0.7 µM in [12] (in the absence of EF-Ts), 40 µM in test [12] (in the presence of EF-Ts), 60 µM in test [15] and 1.6 µM in test [18]. Also, in test [14], the “effect on RelA activity” value was “allosterically stimulates”.
